Common to all, as to type: functional
The species named for assay [1] is Cavia porcellus. Nature of the assay: The compound was tested for hypotensive activity against guinea pig detrusor (bladder) strip mildly depolarized with 15 mM KCl.
The species named for assay [2] is Cavia porcellus. Nature of the assay: Tested for percent increase of efflux rate constant of 0.233 uM of compound using guinea pig detrusor.
For assay [3], the species on record is Cavia porcellus. Kind of assay: The compound was tested for hypotensive activity against guinea pig vascular tissue (portal vein) strip mildly depolarized with 15 mM KCl.
Assay [4] deals with Rattus norvegicus. Nature of the assay: Tested for lowering of blood pressure in spontaneously hypertensive rat model upon oral administration at 5 ug/kg.

In assay [1], `C[C@@]1(C(F)(F)F)CN(c2cccc[n+]2[O-])c2cc(S(=O)(=O)c3ccccc3)ccc2O1` came in with an IC50 of 0.28 nM.

As for `CC1(C)CN(c2cccc[n+]2[O-])c2cc(S(=O)(=O)c3ccccc3)ccc2O1`, in assay [1], 4.1 nM corresponded to half-maximal inhibition (IC50).

For `CC1(C)CN(c2cccc[n+]2[O-])c2cc([N+](=O)[O-])ccc2O1`, inhibition in assay [1] was half-maximal at 74 nM (IC50).

In assay [2], `O=[N+]([O-])c1ccc2c(c1)N(c1cccc[n+]1[O-])CC(C(F)F)(C(F)F)O2` had an Increase of 40.5%. This molecule also displayed an IC50 in assay [3] of 0.6 nM. Moreover, the Blood pressure in assay [4] stood at 35 mmHg.

As to `C[C@]1(C(F)(F)F)CN(c2cccc[n+]2[O-])c2cc(S(=O)(=O)c3ccccc3)ccc2O1`, the IC50 in assay [1] is 0.68 nM.

In the case of `CC1(C(F)(F)F)CN(c2cccc[n+]2[O-])c2cc(S(=O)(=O)c3ccccc3)ccc2O1` (racemic), the half-maximal inhibitory concentration (IC50) in assay [1] was determined as 0.54 nM. The IC50 values of the last two molecules are within 1.5-fold of each other.

One may read the IC50 as the concentration that gives 50% inhibition. A high value points to weaker potency in that assay.
